Measured values from publication PMC4061985 (Journal of immunology (Baltimore, Md. : 1950), 2009).
Residues, ends and D or L forms follow the SMILES beside them.

Biological target: HLA-DR0901 protein (Homo sapiens, UniProt P01903+P01911, A100R/A103E/D57H/D86V/F55Y/F60I/F76Y/I96F/K127E/L162R/M171V/P40D/Q125H/Q99R/R33Q/R42F/S133A/S66N/T210M/V115G/W38K/Y107V/Y59G/Y89S)
Test: Peptide binding competition assay, DR0901

Row | Structure (SMILES) | Kd [nM]
1 | CC[C@H](C)[C@H](NC(=O)[C@H](CCCCN)NC(=O)[C@H](CC(=O)O)NC(=O)[C@H](CC(C)C)NC(=O)[C@H](C)NC(=O)[C@H](Cc1ccc(O)cc1)NC(=O)[C@H](CC(N)=O)NC(=O)[C@H](Cc1ccccc1)NC(=O)[C@H](CC(N)=O)NC(=O)[C@@H](N)CC(C)C)C(=O)N[C@H](C(=O)N[C@H](C(=O)N[C@@H](CC(=O)O)C(=O)O)C(C)C)[C@@H](C)CC [LNFNYALDKIIVD] (H-LNFNYALDKIIVD-OH) | 55 ± 10
2 | CC[C@H](C)[C@H](NC(=O)[C@H](CCCCN)NC(=O)[C@H](CC(=O)O)NC(=O)[C@H](CC(C)C)NC(=O)[C@H](CC(=O)O)NC(=O)[C@H](Cc1ccc(O)cc1)NC(=O)[C@H](CC(N)=O)NC(=O)[C@H](Cc1ccccc1)NC(=O)[C@H](CC(N)=O)NC(=O)[C@@H](N)CC(C)C)C(=O)N[C@H](C(=O)N[C@H](C(=O)N[C@@H](CC(=O)O)C(=O)O)C(C)C)[C@@H](C)CC [LNFNYDLDKIIVD] (H-LNFNYDLDKIIVD-OH) | 1040
3 | CC[C@H](C)[C@H](NC(=O)[C@H](CCCCN)NC(=O)[C@H](CC(=O)O)NC(=O)[C@H](CC(C)C)NC(=O)[C@H](CCC(=O)O)NC(=O)[C@H](Cc1ccc(O)cc1)NC(=O)[C@H](CC(N)=O)NC(=O)[C@H](Cc1ccccc1)NC(=O)[C@H](CC(N)=O)NC(=O)[C@@H](N)CC(C)C)C(=O)N[C@H](C(=O)N[C@H](C(=O)N[C@@H](CC(=O)O)C(=O)O)C(C)C)[C@@H](C)CC [LNFNYELDKIIVD] (H-LNFNYELDKIIVD-OH) | 116000
4 | CC[C@H](C)[C@H](NC(=O)[C@H](CCCCN)NC(=O)[C@H](CC(=O)O)NC(=O)[C@H](CC(C)C)NC(=O)CNC(=O)[C@H](Cc1ccc(O)cc1)NC(=O)[C@H](CC(N)=O)NC(=O)[C@H](Cc1ccccc1)NC(=O)[C@H](CC(N)=O)NC(=O)[C@@H](N)CC(C)C)C(=O)N[C@H](C(=O)N[C@H](C(=O)N[C@@H](CC(=O)O)C(=O)O)C(C)C)[C@@H](C)CC [LNFNYGLDKIIVD] (H-LNFNYGLDKIIVD-OH) | 38 ± 5
5 | CC[C@H](C)[C@H](NC(=O)[C@H](CCCCN)NC(=O)[C@H](CC(=O)O)NC(=O)[C@H](CC(C)C)NC(=O)[C@H](Cc1c[nH]cn1)NC(=O)[C@H](Cc1ccc(O)cc1)NC(=O)[C@H](CC(N)=O)NC(=O)[C@H](Cc1ccccc1)NC(=O)[C@H](CC(N)=O)NC(=O)[C@@H](N)CC(C)C)C(=O)N[C@H](C(=O)N[C@H](C(=O)N[C@@H](CC(=O)O)C(=O)O)C(C)C)[C@@H](C)CC [LNFNYHLDKIIVD] (H-LNFNYHLDKIIVD-OH) | 80 ± 15
6 | CC[C@H](C)[C@H](NC(=O)[C@H](CCCCN)NC(=O)[C@H](CC(=O)O)NC(=O)[C@H](CC(C)C)NC(=O)[C@H](CC(C)C)NC(=O)[C@H](Cc1ccc(O)cc1)NC(=O)[C@H](CC(N)=O)NC(=O)[C@H](Cc1ccccc1)NC(=O)[C@H](CC(N)=O)NC(=O)[C@@H](N)CC(C)C)C(=O)N[C@H](C(=O)N[C@H](C(=O)N[C@@H](CC(=O)O)C(=O)O)C(C)C)[C@@H](C)CC [LNFNYLLDKIIVD] (H-LNFNYLLDKIIVD-OH) | 3600
7 | CC[C@H](C)[C@H](NC(=O)[C@H](CCCCN)NC(=O)[C@H](CC(=O)O)NC(=O)[C@H](CC(C)C)NC(=O)[C@H](CCSC)NC(=O)[C@H](Cc1ccc(O)cc1)NC(=O)[C@H](CC(N)=O)NC(=O)[C@H](Cc1ccccc1)NC(=O)[C@H](CC(N)=O)NC(=O)[C@@H](N)CC(C)C)C(=O)N[C@H](C(=O)N[C@H](C(=O)N[C@@H](CC(=O)O)C(=O)O)C(C)C)[C@@H](C)CC [LNFNYMLDKIIVD] (H-LNFNYMLDKIIVD-OH) | 146 ± 9
8 | CC[C@H](C)[C@H](NC(=O)[C@H](CCCCN)NC(=O)[C@H](CC(=O)O)NC(=O)[C@H](CC(C)C)NC(=O)[C@H](CC(N)=O)NC(=O)[C@H](Cc1ccc(O)cc1)NC(=O)[C@H](CC(N)=O)NC(=O)[C@H](Cc1ccccc1)NC(=O)[C@H](CC(N)=O)NC(=O)[C@@H](N)CC(C)C)C(=O)N[C@H](C(=O)N[C@H](C(=O)N[C@@H](CC(=O)O)C(=O)O)C(C)C)[C@@H](C)CC [LNFNYNLDKIIVD] (H-LNFNYNLDKIIVD-OH) | 290 ± 90
9 | CC[C@H](C)[C@H](NC(=O)[C@H](CCCCN)NC(=O)[C@H](CC(=O)O)NC(=O)[C@H](CC(C)C)NC(=O)[C@@H]1CCCN1C(=O)[C@H](Cc1ccc(O)cc1)NC(=O)[C@H](CC(N)=O)NC(=O)[C@H](Cc1ccccc1)NC(=O)[C@H](CC(N)=O)NC(=O)[C@@H](N)CC(C)C)C(=O)N[C@H](C(=O)N[C@H](C(=O)N[C@@H](CC(=O)O)C(=O)O)C(C)C)[C@@H](C)CC [LNFNYPLDKIIVD] (H-LNFNYPLDKIIVD-OH) | 290 ± 70
10 | CC[C@H](C)[C@H](NC(=O)[C@H](CCCCN)NC(=O)[C@H](CC(=O)O)NC(=O)[C@H](CC(C)C)NC(=O)[C@H](CCC(N)=O)NC(=O)[C@H](Cc1ccc(O)cc1)NC(=O)[C@H](CC(N)=O)NC(=O)[C@H](Cc1ccccc1)NC(=O)[C@H](CC(N)=O)NC(=O)[C@@H](N)CC(C)C)C(=O)N[C@H](C(=O)N[C@H](C(=O)N[C@@H](CC(=O)O)C(=O)O)C(C)C)[C@@H](C)CC [LNFNYQLDKIIVD] (H-LNFNYQLDKIIVD-OH) | 1500
11 | CC[C@H](C)[C@H](NC(=O)[C@H](CCCCN)NC(=O)[C@H](CC(=O)O)NC(=O)[C@H](CC(C)C)NC(=O)[C@H](CCCNC(=N)N)NC(=O)[C@H](Cc1ccc(O)cc1)NC(=O)[C@H](CC(N)=O)NC(=O)[C@H](Cc1ccccc1)NC(=O)[C@H](CC(N)=O)NC(=O)[C@@H](N)CC(C)C)C(=O)N[C@H](C(=O)N[C@H](C(=O)N[C@@H](CC(=O)O)C(=O)O)C(C)C)[C@@H](C)CC [LNFNYRLDKIIVD] (H-LNFNYRLDKIIVD-OH) | 1230
12 | CC[C@H](C)[C@H](NC(=O)[C@H](CCCCN)NC(=O)[C@H](C)NC(=O)[C@H](CC(C)C)NC(=O)[C@H](CO)NC(=O)[C@H](Cc1ccc(O)cc1)NC(=O)[C@H](CC(N)=O)NC(=O)[C@H](Cc1ccccc1)NC(=O)[C@H](CC(N)=O)NC(=O)[C@@H](N)CC(C)C)C(=O)N[C@H](C(=O)N[C@H](C(=O)N[C@@H](CC(=O)O)C(=O)O)C(C)C)[C@@H](C)CC [LNFNYSLAKIIVD] (H-LNFNYSLAKIIVD-OH) | 51 ± 18
13 | CC[C@H](C)[C@H](NC(=O)[C@H](C)NC(=O)[C@H](CC(=O)O)NC(=O)[C@H](CC(C)C)NC(=O)[C@H](CO)NC(=O)[C@H](Cc1ccc(O)cc1)NC(=O)[C@H](CC(N)=O)NC(=O)[C@H](Cc1ccccc1)NC(=O)[C@H](CC(N)=O)NC(=O)[C@@H](N)CC(C)C)C(=O)N[C@H](C(=O)N[C@H](C(=O)N[C@@H](CC(=O)O)C(=O)O)C(C)C)[C@@H](C)CC [LNFNYSLDAIIVD] (H-LNFNYSLDAIIVD-OH) | 65 ± 20
14 | CC[C@H](C)[C@H](NC(=O)[C@H](CC(=O)O)NC(=O)[C@H](CC(=O)O)NC(=O)[C@H](CC(C)C)NC(=O)[C@H](CO)NC(=O)[C@H](Cc1ccc(O)cc1)NC(=O)[C@H](CC(N)=O)NC(=O)[C@H](Cc1ccccc1)NC(=O)[C@H](CC(N)=O)NC(=O)[C@@H](N)CC(C)C)C(=O)N[C@H](C(=O)N[C@H](C(=O)N[C@@H](CC(=O)O)C(=O)O)C(C)C)[C@@H](C)CC [LNFNYSLDDIIVD] (H-LNFNYSLDDIIVD-OH) | 176 ± 65
15 | CC[C@H](C)[C@H](NC(=O)[C@H](Cc1ccccc1)NC(=O)[C@H](CC(=O)O)NC(=O)[C@H](CC(C)C)NC(=O)[C@H](CO)NC(=O)[C@H](Cc1ccc(O)cc1)NC(=O)[C@H](CC(N)=O)NC(=O)[C@H](Cc1ccccc1)NC(=O)[C@H](CC(N)=O)NC(=O)[C@@H](N)CC(C)C)C(=O)N[C@H](C(=O)N[C@H](C(=O)N[C@@H](CC(=O)O)C(=O)O)C(C)C)[C@@H](C)CC [LNFNYSLDFIIVD] (H-LNFNYSLDFIIVD-OH) | 28 ± 6
16 | CC[C@H](C)[C@H](NC(=O)[C@H](Cc1c[nH]cn1)NC(=O)[C@H](CC(=O)O)NC(=O)[C@H](CC(C)C)NC(=O)[C@H](CO)NC(=O)[C@H](Cc1ccc(O)cc1)NC(=O)[C@H](CC(N)=O)NC(=O)[C@H](Cc1ccccc1)NC(=O)[C@H](CC(N)=O)NC(=O)[C@@H](N)CC(C)C)C(=O)N[C@H](C(=O)N[C@H](C(=O)N[C@@H](CC(=O)O)C(=O)O)C(C)C)[C@@H](C)CC [LNFNYSLDHIIVD] (H-LNFNYSLDHIIVD-OH) | 29 ± 9
17 | CC[C@H](C)[C@H](NC(=O)[C@H](CCCCN)NC(=O)[C@H](CC(=O)O)NC(=O)[C@H](CC(C)C)NC(=O)[C@H](CO)NC(=O)[C@H](Cc1ccc(O)cc1)NC(=O)[C@H](CC(N)=O)NC(=O)[C@H](Cc1ccccc1)NC(=O)[C@H](CC(N)=O)NC(=O)[C@@H](N)CC(C)C)C(=O)N[C@@H](C)C(=O)N[C@H](C(=O)N[C@@H](CC(=O)O)C(=O)O)C(C)C [LNFNYSLDKIAVD] (H-LNFNYSLDKIAVD-OH) | 940 ± 250
18 | CC[C@H](C)[C@H](NC(=O)[C@H](CCCCN)NC(=O)[C@H](CC(=O)O)NC(=O)[C@H](CC(C)C)NC(=O)[C@H](CO)NC(=O)[C@H](Cc1ccc(O)cc1)NC(=O)[C@H](CC(N)=O)NC(=O)[C@H](Cc1ccccc1)NC(=O)[C@H](CC(N)=O)NC(=O)[C@@H](N)CC(C)C)C(=O)N[C@@H](CC(=O)O)C(=O)N[C@H](C(=O)N[C@@H](CC(=O)O)C(=O)O)C(C)C [LNFNYSLDKIDVD] (H-LNFNYSLDKIDVD-OH) | 790 ± 120
19 | CC[C@H](C)[C@H](NC(=O)[C@H](CCCCN)NC(=O)[C@H](CC(=O)O)NC(=O)[C@H](CC(C)C)NC(=O)[C@H](CO)NC(=O)[C@H](Cc1ccc(O)cc1)NC(=O)[C@H](CC(N)=O)NC(=O)[C@H](Cc1ccccc1)NC(=O)[C@H](CC(N)=O)NC(=O)[C@@H](N)CC(C)C)C(=O)N[C@@H](CCC(=O)O)C(=O)N[C@H](C(=O)N[C@@H](CC(=O)O)C(=O)O)C(C)C [LNFNYSLDKIEVD] (H-LNFNYSLDKIEVD-OH) | 890 ± 290
20 | CC[C@H](C)[C@H](NC(=O)[C@H](CCCCN)NC(=O)[C@H](CC(=O)O)NC(=O)[C@H](CC(C)C)NC(=O)[C@H](CO)NC(=O)[C@H](Cc1ccc(O)cc1)NC(=O)[C@H](CC(N)=O)NC(=O)[C@H](Cc1ccccc1)NC(=O)[C@H](CC(N)=O)NC(=O)[C@@H](N)CC(C)C)C(=O)N[C@@H](Cc1c[nH]cn1)C(=O)N[C@H](C(=O)N[C@@H](CC(=O)O)C(=O)O)C(C)C [LNFNYSLDKIHVD] (H-LNFNYSLDKIHVD-OH) | 740 ± 170
21 | CC[C@H](C)[C@H](NC(=O)[C@H](CCCCN)NC(=O)[C@H](CC(=O)O)NC(=O)[C@H](CC(C)C)NC(=O)[C@H](CO)NC(=O)[C@H](Cc1ccc(O)cc1)NC(=O)[C@H](CC(N)=O)NC(=O)[C@H](Cc1ccccc1)NC(=O)[C@H](CC(N)=O)NC(=O)[C@@H](N)CC(C)C)C(=O)N[C@H](C(=O)N[C@H](C(=O)N[C@@H](CC(=O)O)C(=O)O)C(C)C)[C@@H](C)CC [LNFNYSLDKIIVD] (H-LNFNYSLDKIIVD-OH) | 73 ± 16
